Source: ChEMBL document CHEMBL5532729, “Nonsymmetrically Substituted 1,1'-Biphenyl-Based Small Molecule Inhibitors of the PD-1/PD-L1 Interaction” (ACS Med Chem Lett, 2024)

Target: Programmed cell death protein 1/Programmed cell death 1 ligand 1 (Homo sapiens, UniProt Q9NZQ7)
Assay: Inhibition of interaction of PD-1 (unknown origin) expressed in Jurkat T cells co-transfected with NFAT response element/PD-L1 (unknown origin) expressed in CHO-K1 cells by reporter bioassay
Assay type: cell-based

Sequence of Programmed cell death protein 1/Programmed cell death 1 ligand 1 (Q15116 whole entry): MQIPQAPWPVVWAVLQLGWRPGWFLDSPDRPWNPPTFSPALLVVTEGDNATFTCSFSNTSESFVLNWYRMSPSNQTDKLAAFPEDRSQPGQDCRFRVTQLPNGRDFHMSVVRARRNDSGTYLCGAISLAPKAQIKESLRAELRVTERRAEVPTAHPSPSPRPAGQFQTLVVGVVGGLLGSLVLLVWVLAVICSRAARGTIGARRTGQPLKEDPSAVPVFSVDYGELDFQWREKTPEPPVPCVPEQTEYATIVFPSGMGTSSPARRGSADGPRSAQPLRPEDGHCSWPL
Sequence of Programmed cell death protein 1/Programmed cell death 1 ligand 1 (Q9NZQ7 whole entry): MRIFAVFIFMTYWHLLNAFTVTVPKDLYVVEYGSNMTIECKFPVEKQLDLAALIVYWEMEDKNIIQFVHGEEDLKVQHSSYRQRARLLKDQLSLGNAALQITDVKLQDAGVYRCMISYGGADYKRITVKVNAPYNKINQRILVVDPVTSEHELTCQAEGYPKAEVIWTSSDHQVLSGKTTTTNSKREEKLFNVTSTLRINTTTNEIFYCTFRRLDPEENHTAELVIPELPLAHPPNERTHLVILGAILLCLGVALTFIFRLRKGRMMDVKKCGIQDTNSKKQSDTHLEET

Cc1c(NC(=O)c2ccc(CNCCO)cn2)cccc1-c1cccc(NC(=O)c2ccc(CNCCO)cn2)c1C
EC50: 17 nM
